Measurements reported in patent publication US10626112B2, “Heterocyclic sulfonamide derivative and medicine comprising same” (EA PHARMA CO., LTD., priority 2014, dated 2020).
Each block holds one compound with its values, some of them ahead of it.

Molecular target: human TRPA1 (Homo sapiens (Human), UniProt O75762)
Assay: Measurement of TRPA1 antagonist activity (2): as (1), different lot of human TRPA1 expression plasmid
Format: cell-based
Conditions: 293T cells transfected with human TRPA1, allylisothiocyanate 20 μM stimulation, calcium fluorescence, read-out: hTRPA1 IC50
Method: Human embryonic kidney-derived 293T cells were cultured in Dulbecco's Modified Eagle Medium containing 10% fetal bovine serum, 10 unit penicillin, and 10 μg streptomycin, plated on a petri dish having a diameter of 10 cm at 3×10^6 cells, and cultured for 24 hr in a CO2 incubator. A reduced serum medium (manufactured by Invitrogen, trade name: OPTI-MEM, 600 μL), a gene transfer reagent (manufactured by Mirus Bio, trade name: Mirus TransIT-293, 18 μL), and human TRPA1 expression plasmid (6 μg) were mixed, the total amount of the mixture was added to the cells on the petri dish to allow for gene transfer. The cells were recovered about for 8 hr later, plated on a poly-D-lysine coated 384 well black/clear bottom plate at 12,000 cells/well, and cultured overnight.
Measurement of Intracellular Calcium Increase
The 384 well plate was recovered, and the medium was removed. A calcium-bonded fluorescent indicator (manufactured by Molecular Device, trade name: Calcium4 Assay Kit, 38 μL) dissolved in assay buffer (1×HBSS, 20 mM HEPES, pH 7.2) was added, and the cells were stained in a CO2 incubator for 1 hr. The cells were taken out at room temperature, stood for not less than 15 min, a test substance (10 μL) was added by a platereader FDSS7000 (Hamamatsu Photonics K.K.) equipped with a 384ch dispenser. After 10 min, allylisothiocyanate (12 μL) was further added at a final concentration of 20 μM, and changes in the relative fluorescence intensity after addition of allylisothiocyanate were measured for 5 min.
Test Substance Preparation
The test substance was dissolved in dimethyl sulfoxide and serially diluted with an assay buffer containing 0.1% bovine serum albumin (1×HBSS, 20 mM HEPES, pH 7.2) to a 4.8-fold concentration of the evaluation concentration. Allylisothiocyanate, which is a known TRPA1 activator, was dissolved in dimethyl sulfoxide to 100 mM, and further diluted 5-fold (100 μM) of the final concentration, like the test substance.
Calculation of Antagonist Activity
Under the test substance-free conditions, the maximum variation range of the fluorescence intensity before and after allylisothiocyanate stimulation was defined to be 100% activity rate, and the variation range before and after buffer stimulation was defined as 0% activity rate. The activity rate on addition of the test substance was determined, and the numerical value obtained by subtracting the activity rate from 100 was defined to be an inhibitory rate. IC50, which is the concentration of the test substance necessary for reaching the 50% inhibitory rate, was calculated from the sigmoid approximate curve by a spreadsheet software Excel-Fit.
Measurement of TRPA1 Antagonist Activity (2)
By a method similar to that in Experimental Example 1-1 except that the lot of human […] expression plasmid is different, the TRPA1 antagonist activity of the test substance was measured.

human TRPA1, sequence (O75762 whole entry): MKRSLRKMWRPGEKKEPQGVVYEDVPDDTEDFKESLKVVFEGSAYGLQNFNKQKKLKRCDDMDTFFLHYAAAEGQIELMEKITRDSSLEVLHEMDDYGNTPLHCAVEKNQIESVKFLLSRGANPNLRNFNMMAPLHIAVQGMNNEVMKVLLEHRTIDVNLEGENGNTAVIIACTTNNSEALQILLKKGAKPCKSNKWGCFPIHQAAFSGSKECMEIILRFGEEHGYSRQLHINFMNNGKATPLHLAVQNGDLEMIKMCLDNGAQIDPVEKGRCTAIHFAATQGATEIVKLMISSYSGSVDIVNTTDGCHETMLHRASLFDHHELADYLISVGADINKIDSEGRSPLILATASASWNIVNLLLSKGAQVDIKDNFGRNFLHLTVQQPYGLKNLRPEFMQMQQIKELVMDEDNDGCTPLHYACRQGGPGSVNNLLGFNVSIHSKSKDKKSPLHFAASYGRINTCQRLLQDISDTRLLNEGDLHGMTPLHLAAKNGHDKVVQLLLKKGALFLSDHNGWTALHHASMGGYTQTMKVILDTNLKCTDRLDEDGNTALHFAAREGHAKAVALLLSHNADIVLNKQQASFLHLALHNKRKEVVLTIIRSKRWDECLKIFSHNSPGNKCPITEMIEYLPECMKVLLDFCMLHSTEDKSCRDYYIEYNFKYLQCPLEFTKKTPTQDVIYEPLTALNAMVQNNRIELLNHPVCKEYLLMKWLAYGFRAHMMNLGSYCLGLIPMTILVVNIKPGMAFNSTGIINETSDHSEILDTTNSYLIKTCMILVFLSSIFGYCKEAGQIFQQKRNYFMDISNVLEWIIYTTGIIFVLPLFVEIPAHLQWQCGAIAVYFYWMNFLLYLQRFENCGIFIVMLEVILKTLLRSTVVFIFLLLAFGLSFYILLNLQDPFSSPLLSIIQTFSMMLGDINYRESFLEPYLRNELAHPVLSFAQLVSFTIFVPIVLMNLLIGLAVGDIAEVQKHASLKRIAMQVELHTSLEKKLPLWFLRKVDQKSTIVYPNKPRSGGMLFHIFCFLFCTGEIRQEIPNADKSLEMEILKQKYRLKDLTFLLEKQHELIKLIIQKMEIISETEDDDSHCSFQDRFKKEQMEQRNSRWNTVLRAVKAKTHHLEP

Compound: CN(C(C)(C)C(=O)NCc1cc(-c2ccc(C(F)(F)F)cn2)ccn1)S(=O)(=O)c1cc2cc(F)ccc2o1 [Example 340, 2-[(5-fluorobenzofuran-2-yl)sulfonyl-methyl-amino]-2-methyl-N-[[4-[5-(trifluoromethyl)-2-pyridyl]-2-pyridyl]methyl]propanamide]
IC50: 380 nM

Compound: C[C@H](C(=O)NCc1cc(-c2ccc(C(F)(F)F)cn2)ccn1)N(C)S(=O)(=O)c1cc2cc(F)ccc2o1 [Example 342, (2R)-2-[(5-fluorobenzofuran-2-yl)sulfonyl-methyl-amino]-N-[[4-[5-(trifluoromethyl)-2-pyridyl]-2-pyridyl]methyl]propanamide]
IC50: 180 nM

Compound: O=C(CNS(=O)(=O)c1cc2cc(F)ccc2o1)NCc1cc(-c2ccc(C(F)(F)F)cn2)ccn1 [Example 343, 2-[(5-fluorobenzofuran-2-yl)sulfonylamino]-N-[[4-[5-(trifluoromethyl)-2-pyridyl]-2-pyridyl]methyl]acetamide]
IC50: 280 nM

Compound: O=C(CNS(=O)(=O)c1cc2cc(F)ccc2o1)NCc1cc(-c2ccc(C(F)(F)F)cc2)ncn1 [Example 345, 2-[(5-fluorobenzofuran-2-yl)sulfonylamino]-N-[[6-[4-(trifluoromethyl)phenyl]-pyrimidin-4-yl]methyl]acetamide]
IC50: 270 nM

Compound: O=C(NCc1cc(-c2ccc(C(F)(F)F)cn2)ccn1)[C@@H]1CCCN1S(=O)(=O)c1cc2ccncc2o1 [Example 346, (2S)-1-furo[2,3-c]pyridin-2-ylsulfonyl-N-[[4-[5-(trifluoromethyl)-2-pyridyl]-2-pyridyl]methyl]pyrrolidine-2-carboxamide]
IC50: 700 nM

Compound: O=C(CN(CC1CC1)S(=O)(=O)c1cc2cc(F)ccc2o1)NCc1cc(-c2ccc(C(F)(F)F)cn2)ccn1 [Example 349, 2-[cyclopropylmethyl-(5-fluorobenzofuran-2-yl)sulfonyl-amino]-N-[[4-[5-(trifluoromethyl)-2-pyridyl]-2-pyridyl]methyl]acetamide]
IC50: 43 nM

Compound: O=C(CN(Cc1ccccn1)S(=O)(=O)c1cc2cc(F)ccc2o1)NCc1cc(-c2ccc(C(F)(F)F)cc2)ncn1 [Example 353, 2-[(5-fluorobenzofuran-2-yl)sulfonyl-(2-pyridylmethyl)-amino]-N-[[6-[4-(trifluoromethyl)-phenyl]pyrimidin-4-yl]methyl]acetamide]
IC50: 300 nM

Compound: COCCN(CC(=O)NCc1cc(-c2ccc(C(F)(F)F)cc2)ncn1)S(=O)(=O)c1cc2cc(F)ccc2o1 [Example 357, 2-[(5-fluorobenzofuran-2-yl)sulfonyl-(2-methoxyethyl)-amino]-N-[[6-[4-(trifluoromethyl)-phenyl]pyrimidin-4-yl]methyl]acetamide]
IC50: 44 nM

Compound: O=C(CNS(=O)(=O)c1cc2cc(F)ccc2o1)NCc1cc(-c2ccc(OC(F)(F)F)cc2)ncn1 [Example 363, 2-[(5-fluorobenzofuran-2-yl)sulfonylamino]-N-[[6-[4-(trifluoromethoxy)phenyl]-pyrimidin-4-yl]methyl]acetamide]
IC50: 920 nM

Compound: O=C(NCc1cc(-c2ncc(C(F)(F)F)cn2)ccn1)[C@@H]1CCCN1S(=O)(=O)c1cc2cnccc2o1 [Example 365, (2S)-1-furo[3,2-c]pyridin-2-ylsulfonyl-N-[[4-[5-(trifluoromethyl)pyrimidin-2-yl]-2-pyridyl]methyl]pyrrolidine-2-carboxamide]
IC50: 220 nM

Compound: C[C@H](NS(=O)(=O)c1cc2cnccc2o1)C(=O)NCc1ccnc(-c2ccc(C(F)(F)F)cc2)c1 [Example 366, (2S)-2-(furo[3,2-c]pyridin-2-ylsulfonylamino)-N-[[2-[4-(trifluoromethyl)phenyl]-4-pyridyl]methyl]propanamide]
IC50: 190 nM

Compound: C[C@H](NS(=O)(=O)c1cc2cnccc2o1)C(=O)NCc1cccc(-c2ccc(C(F)(F)F)cn2)c1 [Example 367, (2S)-2-(furo[3,2-c]pyridin-2-ylsulfonylamino)-N-[[3-[5-(trifluoromethyl)-2-pyridyl]-phenyl]methyl]propanamide]
IC50: 170 nM

Compound: C[C@H](NS(=O)(=O)c1cc2cnccc2o1)C(=O)NCc1cc(-c2ccc(C(F)(F)F)cc2)nc(N(C)C)n1 [Example 369, (2S)-N-[[2-(dimethylamino)-6-[4-(trifluoromethyl)-phenyl]pyrimidin-4-yl]methyl]-2-(furo[3,2-c]pyridin-2-ylsulfonylamino)propanamide]
IC50: 44 nM

Compound: C[C@H](NS(=O)(=O)c1cc2cc(F)ccc2o1)C(=O)NCc1cc(-c2ccc(C(F)(F)F)cc2)nc(N(C)C)n1 [Example 370, (2S)-N-[[2-(dimethylamino)-6-[4-(trifluoromethyl)-phenyl]pyrimidin-4-yl]methyl]-2-[(5-fluorobenzofuran-2-yl)sulfonylamino]propanamide]
IC50: 73 nM

Now those with a lower IC50, led by results:

IC50: 16 nM
Compound: CC(C)N(CC(=O)NCc1cc(-c2ccc(C(F)(F)F)cn2)ccn1)S(=O)(=O)c1cc2cc(F)ccc2o1 [Example 348, 2-[(5-fluorobenzofuran-2-yl)sulfonyl-isopropyl-amino]-N-[[4-[5-(trifluoromethyl)-2-pyridyl]-2-pyridyl]methyl]acetamide]

IC50: 14 nM
Compound: C[C@@]1(C(=O)NCc2cc(-c3ccc(C(F)(F)F)cn3)ccn2)CCCN1S(=O)(=O)c1cc2cc(F)ccc2o1 [Example 341, (2S)-1-(5-fluorobenzofuran-2-yl)sulfonyl-2-methyl-N-[[4-[5-(trifluoromethyl)-2-pyridyl]-2-pyridyl]methyl]pyrrolidine-2-carboxamide]

IC50: 13 nM
Compound: CC(C)N(CC(=O)NCc1cc(-c2ccc(C(F)(F)F)cc2)ncn1)S(=O)(=O)c1cc2cnccc2o1 [Example 368, 2-[furo[3,2-c]pyridin-2-ylsulfonyl(isopropyl)amino]-N-[[6-[4-(trifluoromethyl)-phenyl]pyrimidin-4-yl]methyl]acetamide]

IC50: 12 nM
Compound: CC(C)(C)OC(=O)c1cc(CNC(=O)[C@@H]2CCCN2S(=O)(=O)c2cc3ccccc3o2)cc(-c2ccc(C(F)(F)F)cc2)c1 [Example 338, tert-butyl 3-[[[(2S)-1-(benzofuran-2-ylsulfonyl)pyrrolidine-2-carbonyl]amino]methyl]-5-[4-(trifluoromethyl)phenyl]-benzoate]

IC50: 11 nM
Compound: CN(CC(=O)NCc1cc(-c2ccc(C(F)(F)F)cn2)ccn1)S(=O)(=O)c1cc2cc(F)ccc2o1 [Example 339, 2-[(5-fluorobenzofuran-2-yl)sulfonyl-methyl-amino]-N-[[4-[5-(trifluoromethyl)-2-pyridyl]-2-pyridyl]methyl]acetamide]

IC50: 10 nM
Compound: CC(C)N(CC(=O)NCc1cc(-c2cnc(C(F)(F)F)nc2)ncn1)S(=O)(=O)c1cc2cc(F)ccc2o1 [Example 360, 2-[(5-fluorobenzofuran-2-yl)sulfonyl-isopropyl-amino]-N-[[6-[2-(trifluoromethyl)pyrimidin-5-yl]pyrimidin-4-yl]methyl]acetamide]

IC50: 10 nM
Compound: CC(C)N(CC(=O)NCc1cc(-c2ccc(OC(F)(F)F)cc2)ncn1)S(=O)(=O)c1cc2cc(F)ccc2o1 [Example 364, 2-[(5-fluorobenzofuran-2-yl)sulfonyl-isopropyl-amino]-N-[[6-[4-(trifluoromethoxy)-phenyl]pyrimidin-4-yl]methyl]acetamide]

IC50: 10 nM
Compound: CN(C)c1nc(CNC(=O)[C@@H]2CCCN2S(=O)(=O)c2cc3ccccc3o2)cc(-c2ccc(C(F)(F)F)nc2)n1 [Example 371, (2S)-1-(benzofuran-2-ylsulfonyl)-N-[[2-(dimethylamino)-6-[6-(trifluoromethyl)-3-pyridyl]pyrimidin-4-yl]methyl]pyrrolidine-2-carboxamide]

IC50: 7.9 nM
Compound: CC(C)N(CC(=O)NCc1cc(-c2ccc(C(F)(F)F)nc2)ncn1)S(=O)(=O)c1cc2cc(F)ccc2o1 [Example 359, 2-[(5-fluorobenzofuran-2-yl)sulfonyl-isopropyl-amino]-N-[[6-[6-(trifluoromethyl)-3-pyridyl]pyrimidin-4-yl]methyl]acetamide]

IC50: 7 nM
Compound: CN(CC(=O)NCc1cc(-c2ccc(OC(F)(F)F)cc2)ncn1)S(=O)(=O)c1cc2cc(F)ccc2o1 [Example 362, 2-[(5-fluorobenzofuran-2-yl)sulfonyl-methyl-amino]-N-[[6-[4-(trifluoromethoxy)-phenyl]pyrimidin-4-yl]methyl]acetamide]

IC50: 3.3 nM
Compound: CN(CC(=O)NCc1cc(-c2ccc(C(F)(F)F)cc2)ncn1)S(=O)(=O)c1cc2cc(F)ccc2o1 [Example 344, 2-[(5-fluorobenzofuran-2-yl)sulfonyl-methyl-amino]-N-[[6-[4-(trifluoromethyl)-phenyl]pyrimidin-4-yl]methyl]acetamide]
